PubChem BioAssay (NCI)
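Following 48 hours of exposure in 96-well plates, responses at five concentrations were used to interpolate endpoints linearly. Definition used: TGI = concentration required for complete inhibition of growth.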

What was measured:
Assay in all cases: inhibition of tumour cell growth, NCI panel, 48 h
786-0 renal = test system: 786-0 renal
A498 renal = test system: A498 renal
A549 NSCLC = test system: A549 NSCLC
ACHN renal = test system: ACHN renal
CAKI-1 renal = test system: CAKI-1 renal
CCRF-CEM leukemia = test system: CCRF-CEM leukemia
DLD-1 colon = test system: DLD-1 colon
DMS 114 small cell lung = test system: DMS 114 small cell lung
DMS 273 small cell lung = test system: DMS 273 small cell lung
EKVX NSCLC = test system: EKVX NSCLC
HCC-2998 colon = test system: HCC-2998 colon
HCT-116 colon = test system: HCT-116 colon
HCT-15 colon = test system: HCT-15 colon
HL-60(TB) leukemia = test system: HL-60(TB) leukemia
HOP-18 NSCLC = test system: HOP-18 NSCLC
HOP-62 NSCLC = test system: HOP-62 NSCLC
HOP-92 NSCLC = test system: HOP-92 NSCLC
HT29 colon = test system: HT29 colon
IGROV1 ovarian = test system: IGROV1 ovarian
K-562 leukemia = test system: K-562 leukemia
KM12 colon = test system: KM12 colon
KM20L2 colon = test system: KM20L2 colon
LOX IMVI melanoma = test system: LOX IMVI melanoma
LXFL 529 NSCLC = test system: LXFL 529 NSCLC
M14 melanoma = test system: M14 melanoma
M19-MEL melanoma = test system: M19-MEL melanoma
MALME-3M melanoma = test system: MALME-3M melanoma
MOLT-4 leukemia = test system: MOLT-4 leukemia
NCI-H226 lung = test system: NCI-H226 lung
NCI-H23 lung = test system: NCI-H23 lung
NCI-H460 lung = test system: NCI-H460 lung
OVCAR-3 ovarian = test system: OVCAR-3 ovarian
OVCAR-4 ovarian = test system: OVCAR-4 ovarian
OVCAR-5 ovarian = test system: OVCAR-5 ovarian
OVCAR-8 ovarian = test system: OVCAR-8 ovarian
RPMI-8226 leukemia = test system: RPMI-8226 leukemia
RXF 393 renal = test system: RXF 393 renal
SF-268 CNS = test system: SF-268 CNS
SF-295 CNS = test system: SF-295 CNS
SF-539 CNS = test system: SF-539 CNS
SK-MEL-2 melanoma = test system: SK-MEL-2 melanoma
SK-MEL-28 melanoma = test system: SK-MEL-28 melanoma
SK-MEL-5 melanoma = test system: SK-MEL-5 melanoma
SN12C renal = test system: SN12C renal
SNB-19 CNS = test system: SNB-19 CNS
SNB-75 CNS = test system: SNB-75 CNS
SNB-78 CNS = test system: SNB-78 CNS
SR leukemia = test system: SR leukemia
SW-620 colon = test system: SW-620 colon
TK-10 renal = test system: TK-10 renal
UACC-257 melanoma = test system: UACC-257 melanoma
UACC-62 melanoma = test system: UACC-62 melanoma
UO-31 renal = test system: UO-31 renal
XF 498 CNS = test system: XF 498 CNS
COLO 205 colon = test system: COLO 205 colon
NCI-H522 lung = test system: NCI-H522 lung
SK-OV-3 ovarian = test system: SK-OV-3 ovarian
U251 CNS = test system: U251 CNS

N#Cc1ccc(/C=N\N2C(=O)c3ccccc3C2=O)cc1
TGI (786-0 renal): > 100 µM
TGI (A498 renal): > 100 µM
TGI (A549 NSCLC): > 100 µM
TGI (ACHN renal): > 100 µM
TGI (CAKI-1 renal): > 100 µM
TGI (CCRF-CEM leukemia): > 100 µM
TGI (DLD-1 colon): > 100 µM
TGI (DMS 114 small cell lung): > 100 µM
TGI (DMS 273 small cell lung): > 100 µM
TGI (EKVX NSCLC): > 100 µM
TGI (HCC-2998 colon): > 100 µM
TGI (HCT-116 colon): > 100 µM
TGI (HCT-15 colon): > 100 µM
TGI (HL-60(TB) leukemia): > 100 µM
TGI (HOP-18 NSCLC): > 100 µM
TGI (HOP-62 NSCLC): > 100 µM
TGI (HOP-92 NSCLC): > 100 µM
TGI (HT29 colon): > 100 µM
TGI (IGROV1 ovarian): > 100 µM
TGI (K-562 leukemia): > 100 µM
TGI (KM12 colon): > 100 µM
TGI (KM20L2 colon): > 100 µM
TGI (LOX IMVI melanoma): > 100 µM
TGI (LXFL 529 NSCLC): > 100 µM
TGI (M14 melanoma): > 100 µM
TGI (M19-MEL melanoma): > 100 µM
TGI (MALME-3M melanoma): > 100 µM
TGI (MOLT-4 leukemia): > 100 µM
TGI (NCI-H226 lung): > 100 µM
TGI (NCI-H23 lung): > 100 µM
TGI (NCI-H460 lung): > 100 µM
TGI (OVCAR-3 ovarian): > 100 µM
TGI (OVCAR-4 ovarian): > 100 µM
TGI (OVCAR-5 ovarian): > 100 µM
TGI (OVCAR-8 ovarian): > 100 µM
TGI (RPMI-8226 leukemia): > 100 µM
TGI (RXF 393 renal): > 100 µM
TGI (SF-268 CNS): > 100 µM
TGI (SF-295 CNS): > 100 µM
TGI (SF-539 CNS): > 100 µM
TGI (SK-MEL-2 melanoma): > 100 µM
TGI (SK-MEL-28 melanoma): > 100 µM
TGI (SK-MEL-5 melanoma): > 100 µM
TGI (SN12C renal): > 100 µM
TGI (SNB-19 CNS): > 100 µM
TGI (SNB-75 CNS): > 100 µM
TGI (SNB-78 CNS): > 100 µM
TGI (SR leukemia): > 100 µM
TGI (SW-620 colon): > 100 µM
TGI (TK-10 renal): > 100 µM
TGI (UACC-257 melanoma): > 100 µM
TGI (UACC-62 melanoma): > 100 µM
TGI (UO-31 renal): > 100 µM
TGI (XF 498 CNS): > 100 µM

Cn1c(=O)nc2n(-c3ccc(F)cc3)c3ccccc3nc-2c1=O
TGI (786-0 renal): > 100 µM
TGI (A498 renal): 93.4 µM
TGI (A549 NSCLC): 48.6 µM
TGI (ACHN renal): 49.7 µM
TGI (CAKI-1 renal): 73.3 µM
TGI (CCRF-CEM leukemia): 63.7 µM
TGI (COLO 205 colon): 22.1 µM
TGI (DLD-1 colon): 62.1 µM
TGI (DMS 114 small cell lung): 28.6 µM
TGI (DMS 273 small cell lung): 36 µM
TGI (EKVX NSCLC): 32 µM
TGI (HCC-2998 colon): 49.8 µM
TGI (HCT-116 colon): 37.9 µM
TGI (HCT-15 colon): 37.4 µM
TGI (HOP-18 NSCLC): > 100 µM
TGI (HOP-62 NSCLC): > 100 µM
TGI (HT29 colon): 38.7 µM
TGI (IGROV1 ovarian): 56.5 µM
TGI (K-562 leukemia): 45.8 µM
TGI (KM12 colon): > 100 µM
TGI (KM20L2 colon): 48.7 µM
TGI (LXFL 529 NSCLC): > 100 µM
TGI (M14 melanoma): 67.3 µM
TGI (M19-MEL melanoma): 10.6 µM
TGI (MALME-3M melanoma): 23 µM
TGI (MOLT-4 leukemia): 62.8 µM
TGI (NCI-H226 lung): > 100 µM
TGI (NCI-H23 lung): 42.8 µM
TGI (NCI-H460 lung): 80.7 µM
TGI (NCI-H522 lung): 35.4 µM
TGI (OVCAR-3 ovarian): 11 µM
TGI (OVCAR-4 ovarian): 27.8 µM
TGI (OVCAR-5 ovarian): 42.2 µM
TGI (OVCAR-8 ovarian): 67.4 µM
TGI (RPMI-8226 leukemia): 70.9 µM
TGI (RXF 393 renal): 79.8 µM
TGI (SF-268 CNS): > 100 µM
TGI (SF-295 CNS): 40.8 µM
TGI (SF-539 CNS): 46.5 µM
TGI (SK-MEL-2 melanoma): 51.1 µM
TGI (SK-MEL-5 melanoma): 25.8 µM
TGI (SK-OV-3 ovarian): > 100 µM
TGI (SN12C renal): 56.6 µM
TGI (SNB-19 CNS): 37.4 µM
TGI (SNB-75 CNS): 91.6 µM
TGI (SNB-78 CNS): 42.2 µM
TGI (SW-620 colon): 34 µM
TGI (TK-10 renal): 89.1 µM
TGI (U251 CNS): 71.4 µM
TGI (UACC-257 melanoma): 28.5 µM
TGI (UACC-62 melanoma): 25 µM
TGI (UO-31 renal): > 100 µM
TGI (XF 498 CNS): 34.3 µM
